Literature values, collected in patent US10722456B2, “Oral composition of celecoxib for treatment of pain” (Dr. Reddy's Laboratories Ltd., priority 2016, dated 2020).

Conditions: oral administration

## Cc1ccc(-c2cc(C(F)(F)F)nn2-c2ccc(S(N)(=O)=O)cc2)cc1 [Celecoxib, 4-[5-(4-methylphenyl)—3-(trifluoromethyl)-1H-pyrazol-1-yl] benzenesulfonamide]
  time for peak plasma concentrations to be achieved: approximately 3.0 hours
